# Test results from patent EP4818172A1, “ASCORBIC ACID DERIVATIVES AND COSMETIC CONTAINING SAME” (Seiwa Kasei Co., Ltd., priority 2023, dated 2025).
# Assays:
# [1] = tested on: Normal human epidermal keratinocytes; experiment: Antioxidant effect: ROS production inhibition after H2O2 (DCFHDA probe); format: cell-based; conditions: sample at 10 mM or less, 24 hours, then 0.2 mM H2O2 for 2 hours, N=4
# Procedure: Normal human epidermal keratinocytes were seeded onto a 96-well plate using KG2 medium at a cell density of 2.0 × 10^4 cells/well. After 24 hours of pre-incubation, samples adjusted to a predetermined concentration in KG2 medium were added to each well. After 24 hours of incubation, the medium was removed, followed by washing with HBSS(-) and the incorporation of the ROS-reactive fluorescent probe DCFHDA for 30 minutes. The cells were again washed with HBSS(-), treated with 0.2 mM H2O2, and incubated for 2 hours. The fluorescence intensity was measured, and the amount of ROS produced per unit protein was calculated by dividing the fluorescence intensity by the amount of protein quantified by the BCA method, resulting in an analytical value of 1. Furthermore, the amount of ROS production calculated without adding the sample adjusted to a predetermined concentration using the above test method was set to analytical value 2; and the amount of ROS production calculated without adding the sample or 0.2 mM H2O2 was set to analytical value 3.
# ROS production inhibition rate (%) was calculated using the following formula. The higher the ROS production inhibition rate, the greater the antioxidant effect can be evaluated to be.
# ROS production inhibition rate (%) = [(analysis value 2) - (analysis value 1)] / [(analysis value 2) - (analysis value 3)] × 100
# The ROS production inhibition rate when the sample was measured at a concentration of 10 mM or less was evaluated as follows. Note that the measurement was performed in N=4. • <20%: + • 20-40%: ++ • 40%<: +++ [Table 21]
# [2] = tested on: Normal human dermal fibroblasts (NHDF); experiment: Hyaluronic acid production promoting effect (ELISA of supernatant); format: cell-based; conditions: sample at 10 mM or less in serum-free D-MEM, cultured 48 hours, % of control group (100%), N=3
# Procedure: Normal human dermal fibroblasts (NHDF) were prepared in D-MEM containing 5% (v/v) fetal bovine serum to a cell density of 2.5 × 10^4 cells/well, and then pre-incubated on a 96-well plate for 24 hours. After removing the medium, samples prepared in serum-free D-MEM were added to each well and cultured for 48 hours. After the culture was completed, the amount of hyaluronic acid in the supernatant was quantified by ELISA. Measurements were performed in triplicate (N=3).
# (§1) The amount of hyaluronic acid produced when the sample was measured at a concentration of 10 mM or less was compared with that of the control group, and the results (% values when the control group is set to 100%) are shown in Tables 18 to 20 based on the following criteria. • <100%: ± • 100-120%: + • 120%<: ++ [Table 18]
# [3] = Stability test -1: odor and coloration scored by 10 panelists; format: physicochemical; conditions: Test Example 1, aqueous solution, total score of 10 panelists
# Procedure: For each of the samples of Synthesis Examples 1 to 6, 1% aqueous solutions were adjusted to pH 3, 5, 7, 8, and 9 with a dilute potassium hydroxide aqueous solution, and then placed in 50 mL screw tubes and • 2: Color changes compared to immediately after preparation. • 1: Strongly colored compared to immediately after preparation. Based on the results of the above evaluation, the following classification was made: • ○: Total score of 10 panelists is 25 or more • △: Total score of 10 panelists is 16-24 • ×: The total score of 10 panelists is 15 or less [Table 10]
# [4] = Stability test -1: residual rate of 1% aqueous solutions at pH 3 to 9 on storage; format: physicochemical; conditions: 1% aqueous solution
# [5] = tested on: Normal human dermal fibroblasts; experiment: Collagen production promoting effect (ELISA of free collagen in supernatant); format: cell-based; conditions: sample at 10 mM or less, cultured 48 hours, % of control group (100%), N=3
# Procedure: Normal human dermal fibroblasts were prepared in D-MEM containing 5% (v/v) fetal bovine serum to a cell density of 2.5 × 10^4 cell s /well, and then pre-incubated for 24 hours on a 96-well plate. After removing the medium, samples prepared to a predetermined concentration in D-MEM containing 5% (v/v) fetal bovine serum were added to each well and cultured for 48 hours. After the culture was completed, the amount of free collagen in the supernatant was quantified by ELISA. Measurements were performed in triplicate (N=3).
# as §1, with “collagen” for “hyaluronic acid”, “was” for “is”, “Table 17” for “Tables 18 to 20”, “100-140%:” for “100-120%:”, “140%<:” for “120%<:”, “17]” for “18]”
Structure (SMILES),"Residual Rate After 2 weeks ([4]; pH3, stored at 50°C)","Residual Rate After 4 weeks ([4]; pH3, stored at 50°C)","Residual Rate After 2 weeks ([4]; pH5, stored at 50°C)","Residual Rate After 4 weeks ([4]; pH5, stored at 50°C)","Residual Rate After 2 weeks ([4]; pH7, stored at 50°C)","Residual Rate After 4 weeks ([4]; pH7, stored at 50°C)","Residual Rate After 2 weeks ([4]; pH8, stored at 50°C)","Residual Rate After 4 weeks ([4]; pH8, stored at 50°C)","Residual Rate After 2 weeks ([4]; pH9, stored at 50°C)","Residual Rate After 4 weeks ([4]; pH9, stored at 50°C)",Antioxidant effect (ROS production inhibition rate) [1],Hyaluronic acid production-promoting effect [2],Coloration After 2 weeks [3],Odor After 2 weeks [3],Coloration After 4 weeks [3],Odor After 4 weeks [3],Collagen production-promoting effect [5]
"O=C1OC2C(O)COC23OCCCCOC13 (stereo not shown) [synthesis Example 33, 4-hydroxy-2,6,9,14-tetraoxatricyclo [6.6.0.0^1.5] tetradecan-7-one]",–,–,–,–,–,–,–,–,–,–,++ (20-40%),+ (100-120%),–,–,–,–,–
"O=C1OC2C(O)COC23OCCCOC13 (stereo not shown) [synthesis Example 34, 4-hydroxy-2,6,9,13-tetraoxatricyclo [6.5.0.0^1.5] tridecan-7-one]",–,–,–,–,–,–,–,–,–,–,++ (20-40%),+ (100-120%),–,–,–,–,–
"O=C1OC(C(O)CO)C2=C1OC(CO)CO2 (stereo not shown) [synthesis example 5, 2,3-O-(1-hydroxymethyl-1,2-ethanediyl) ascorbic acid]",⊚,⊚,⊚,⊚,○,Δ,○,Δ,○,Δ,–,+ (100-120%),○ (Total score of 10 panelists is 25 or more),○ (Total score of 10 panelists is 25 or more),○ (Total score of 10 panelists is 25 or more),○ (Total score of 10 panelists is 25 or more),+ (100-140%)
"O=C1OC(C(O)CO)C2=C1OCC1(COC1)CO2 (stereo not shown) [synthesis example 6, 2,3-O-(3,3-dimethyleneoxetane) ascorbic acid]",⊚,⊚,⊚,⊚,○,○,○,Δ,○,Δ,–,++ (120%<),○ (Total score of 10 panelists is 25 or more),○ (Total score of 10 panelists is 25 or more),○ (Total score of 10 panelists is 25 or more),○ (Total score of 10 panelists is 25 or more),++ (140%<)

# More lines, main results first:
"Residual Rate After 2 weeks ([4]; pH3, stored at 50°C)","Residual Rate After 4 weeks ([4]; pH3, stored at 50°C)","Residual Rate After 2 weeks ([4]; pH5, stored at 50°C)","Residual Rate After 4 weeks ([4]; pH5, stored at 50°C)","Residual Rate After 2 weeks ([4]; pH7, stored at 50°C)","Residual Rate After 4 weeks ([4]; pH7, stored at 50°C)","Residual Rate After 2 weeks ([4]; pH8, stored at 50°C)","Residual Rate After 4 weeks ([4]; pH8, stored at 50°C)","Residual Rate After 2 weeks ([4]; pH9, stored at 50°C)","Residual Rate After 4 weeks ([4]; pH9, stored at 50°C)",Structure (SMILES),Antioxidant effect (ROS production inhibition rate) [1],Hyaluronic acid production-promoting effect [2],Coloration After 2 weeks [3],Odor After 2 weeks [3],Coloration After 4 weeks [3],Odor After 4 weeks [3],Collagen production-promoting effect [5]
⊚,⊚,⊚,⊚,○,Δ,Δ,×,×,×,"O=C1OC(C(O)CO)C2=C1OCCO2 (stereo not shown) [synthesis example 1, 2,3-O-(1,2-ethanediyl) ascorbic acid]",–,+ (100-120%),○ (Total score of 10 panelists is 25 or more),○ (Total score of 10 panelists is 25 or more),Δ,○ (Total score of 10 panelists is 25 or more),+ (100-140%)
⊚,⊚,⊚,⊚,⊚,⊚,⊚,○,○,Δ,"O=C1OC(C(O)CO)C2=C1OCCCO2 (stereo not shown) [synthesis example 2, 2,3-O-(1,3-propanediyl) ascorbic acid]",–,++ (120%<),○ (Total score of 10 panelists is 25 or more),○ (Total score of 10 panelists is 25 or more),○ (Total score of 10 panelists is 25 or more),Δ,++ (140%<)
⊚,⊚,⊚,⊚,⊚,⊚,⊚,○,○,Δ,"O=C1OC(C(O)CO)C2=C1OCCCCO2 (stereo not shown) [synthesis example 3, 2,3-O-(1,4-butanediyl) ascorbic acid]",–,+ (100-120%),○ (Total score of 10 panelists is 25 or more),○ (Total score of 10 panelists is 25 or more),○ (Total score of 10 panelists is 25 or more),○ (Total score of 10 panelists is 25 or more),+ (100-140%)
⊚,⊚,⊚,⊚,○,○,○,Δ,○,Δ,"O=C1OC(C(O)CO)C2=C1OCC(O)CO2 (stereo not shown) [synthesis example 4, 2,3-O-(2-hydroxypropane-1,3-diyl) ascorbic acid]",–,++ (120%<),○ (Total score of 10 panelists is 25 or more),○ (Total score of 10 panelists is 25 or more),○ (Total score of 10 panelists is 25 or more),○ (Total score of 10 panelists is 25 or more),+ (100-140%)
